Drawing on ChEMBL document CHEMBL1134116, “Ethambutol analogues as potential antimycobacterial agents” (Bioorg Med Chem Lett, 2001), this text covers Activity for 14 molecules.

Activity calls are given as the source filed them. No cut-off for these calls is given here.

The subject of the first assay is Mycolicibacterium smegmatis. Briefly: Antimycobacterial activity was evaluated against Mycobacterium smegmatis; Inactive. It counts as functional, organism-based.
With `COC(=O)[C@H](CO)NCCN[C@@H](CO)C(=O)OC`, the outcome was inactive.

On to `O=C(O)CNCCNCC(=O)O`, for which the outcome was inactive.

On to `OCCNCCNCCO`, for which the outcome was inactive.

With `O=C(O)CN(CCN(CC(=O)O)CC(=O)O)CC(=O)O`, the result was inactive.

A further assay relates to Mycolicibacterium smegmatis. Briefly: Antimycobacterial activity was evaluated against Mycobacterium smegmatis; Active. In kind it is functional, organism-based.
As to `CC(C)C[C@@H](CO)NCCN[C@@H](CO)CC(C)C`, the result was Active.

Consider `CC[C@@H](CO)NCCN[C@@H](CC)CO`, for which the result was Active.

For the molecule `CC(C)[C@@H](CO)NCCN[C@H](CO)C(C)C`, the result was Active.

Turning to `CC[C@@H](CO)NCCN1CCC[C@H]1CO`, the outcome was Active.

Turning to `CC[C@H](CO)NCCN[C@@H](CC)CO`, the outcome was Active.

For the molecule `OC[C@@H]1CCCN1CCN1CCC[C@H]1CO`, the outcome was Active.

With `OCCNCCNCCO`, the outcome was Active.

Take `CC[C@@H](CO)NCCN[C@@H](C)CO`: the outcome was Active.

As for `CC[C@@H](CO)NCCN[C@H](C)CO`, the result was Active.

`OC[C@H]1N[C@@H](CSc2ccccc2)C(O)[C@H]1O` (stereo not given in full): the outcome was Active.

Consider `OC[C@H](Cc1ccccc1)NCCN[C@@H](CO)Cc1ccccc1`, for which the outcome was Active.
